# According to US20130171217A1, “ENZYMATIC PERACID GENERATION FOR USE IN SKIN CARE PRODUCTS” (E I DU PONT DE NEMOURS AND COMPANY, priority 2010, published 2013):
# B1: CPAH-HC1010: fusion peptide C277S-HC1010 further comprising a D128G substitution (protein)
# chain: MAFFDLPLEELKKYRPERYEEKDFDEFWEETLAESEKFPLDPVFERMESHLKTVEAYDVTFSGYRGQRIKGWLLVPKLEEEKLPCVVQYIGYNGGRGFPHDWLFWPSMGYICFVMDTRGQGSGWLKGGTPDYPEGPVDPQYPGFMTRGILDPRTYYYRRVFTDAVRAVEAAASFPQVDQERIVIAGGSQGGGIALAVSALSKKAKALLCDVPFLCHFRRAVQLVDTHPYAEITNFLKTHRDKEEIVFRTLSYFDGVNFAARAKIPALFSVGLMDNISPPSTVFAAYNYYAGPKEIRIYPYNNHEGGGSFQAVEQVKFLKKLFEKGGPGSGGAGSPGSAGGPGSAQSQLPDKHSGLHERAPQRYGSGTAEIQSSKNPNPHPQRSWTNGSGHNHMQERYTDPQHSPSVNGLGSGHDHKNQKETHQRHAASSHHHHHH
# Columns and labels:
# [1] = Single fiber tensile strength test of hair after chemical treatment (NAIR, PAA, bleach creams, reductive solution, triacetin/H2O2)
# From the text: Since the quality and diameter of the hair samples are variables, hair sample pre-selection is used to achieve reasonable standard deviation in the tensile strength test. […] To prevent contamination, gloves were used while handing hair fiber samples.
# Plastic transfer pipette tubes were cut to 2^7/8 inches (approximately 7.3 cm) by cutting off the bulb end. A hair bundle with 7 to 20 hair strands was carefully inserted into the tube keeping the hair fibers together by taping one end together and attached to the outside top of the wider end of the transfer pipette. This also helped to keep the strands in place once in the tube.
# Solution/cream (200 μL) was added to a 2.0-mL microfuge tube. The hair sample was placed into tube by inserting the smaller end of transfer pipette inside tube with hair protruding out of the tip such that the hair strands formed a U shape and the free end of the strands hung loosely outside of the microfuge tube.
# After certain application, hair samples were dried and equilibrated in the temperature and humidity control room for at least 12 hr, preferably 24 hr, before tensile strength test.
# (§1) Hair samples were cut into pieces 4-inches in length. The denier number (liner mass density) of each hair fiber was measured by Textechno Vibromat Instrument (Textechno Herbert Stein GmbH & Co. KG; Germany). The hair fibers were tested according to ASTM D 3822-01 (“Tensile Properties of Single Textile Fibers”; ASTM International, West Conshohocken, Pa., 2001), on an Instron testing system (Instron Model 1122 Tester; Instron, Mass.) at about 70° F. (approximately 21° C.) and 65% relative humidity. The treated area of the hair sample was placed in the middle of the gauge and both ends were gripped on the test heads. Both fiber ends were attached on a piece of tape, respectively, for easy handling and gripping on the test heads. The test used 2-inch (5.1 cm) gauge length, […], and 1.2 inch/min (3 cm/min) pulling rate. The force-strain curve of the fiber was recorded during the test. The tenacity at maximum (gf/den) was calculated by dividing maximum force (gf) by denier number (den). Note that (gf/den)/11.33=Newtons/tex (N/tex).
# Tenacity at maximum (tensile strength) of each hair sample was used to compare the integrity of the hair sample. A lower value of the tenacity at maximum is indicative of an improved weakening efficacy. A commercial depilatory cream, NAIR® (an alkali/potassium thioglycolate-based hair removal product from Church and Dwight Co., Inc., Princeton, N.J.), was used to set a target level for hair weakening. Based on the NAIR® product instruction, the recommended treatment time is 3 min to 10 min. Therefore, the tenacity at maximum of a hair sample treated with NAIR® between 3 min to 10 min was used to determine the target level. During hair treatment, about 200 μL of NAIR® cream was added to a 2-mL microfuge tube and hair samples were soaked in the cream for 3, 5 and 10 min. Hair samples were then rinsed with tape water to remove all the cream and then were dried under a stream of N2. […] Therefore, the desired level of hair weakening efficacy was targeted in the range from 0.8 gf/den to 1.3 gf/den under similar testing conditions.
# Peracetic acid was added in 50 mM phosphate buffer to prepare solutions with different PAA concentrations at pH 6 and pH 8. A PAA solution (200 μL) was added to a 2-mL microfuge tube and hair samples were inserted for 2 hours. Hair samples were then rinsed with deionized water and dried under N2.
# […] […] The treatment was repeated for 7 times or 15 times, i.e., 4 hours and 8 hours of total exposure time, respectively.
# The same multiple treatment as in Example 3 was applied with two commercially available hydrogen peroxide-based bleaching creams (SALLY HANSEN® bleach cream for face and SALLY HANSEN® extra strength bleach cream for face & body; Del Laboratories, Inc., Uniondale, N.Y.) and 6 wt % hydrogen peroxide (H2O2) in a similar pH 8, 20% urea, phosphate solution. […]
# [2] = Wool removal from sheep pelt strips by PAA solutions; conditions: 15 wt % urea, pH 8
# Protocol: To evaluate the efficacy of PAA solution on removing the wool from a sheep pelt sample, the following experiment was carried out. Pelt strips (0.5 cm×3 cm) were cut and the wool fibers were trimmed to a length of 0.2 cm. Each solution (50 μL) was applied on separated pelt strip (half of the length treated and half of the length untreated). The pelt strip samples were allowed to stand for 10 min at room temperature ([…]). Excess liquid was removed by blotting and the samples were put inside a plastic tube for 30 min for further treatment and then washed with 50 μL of a 2% sodium lauryl ether sulfate (SLES) solution, rinsed with tap water (excess liquid was removed by blotting), and then dried under N2. The treatment was repeated until the wool fibers in treated area were all removed. Three different solutions were tested using this protocol, a) 0.6 wt % PAA, 15 wt % urea, with 0.5 wt % SLES in a pH 8, 50 mM phosphate buffer; b) 0.6 wt % PAA and 15 wt % urea in a pH 8, 50 mM phosphate buffer; c) 0.2 wt % PAA, 15 wt % urea, 0.5 wt % SLES in a pH 8, 50 mM phosphate buffer. At the 19th, 23rd, 24th application, respectively, the wool fibers on the samples treated with solution (a), (b) and (c) were completely removed. The addition of 0.5 wt % SLES seems to accelerate the wool removal process.
# [3] = Single fiber tensile strength and bleaching start after two-step enzymatic application; conditions: two-step with buffer rinse
# Protocol: as §1
# In a two-step application, the hair strands are first treated with perhydrolase solutions to allow the enzyme to bind hair. The hair strands are then dried or rinsed with buffer and dried. The rinse step is intended to remove excess unbound enzyme from the hair. The hair strands are soaked in triacetin and H2O2 solutions. The application is repeated for multiple times.
# One experiment was carried out with C277S-HC263 and untargeted T. maritima variant C277S using the following protocol: • 1. Enzyme solutions comprising 0.5 mg/mL enzyme in 50 mM phosphate buffer (pH 8) were made with or without 10 wt % urea. • 2. Seven (7) hair strands were soaked in 0.2 mL of an enzyme solution for 10 min and then dried under N2 without prior rinsing. • 3. The hair strands were then soaked in 0.2 mL of a pH 8 solution containing 100-mM triacetin and 250-mM H2O2 for 15 min, dried, then rinsed with DI water and then dried again. • 4. Steps 2-3 were repeated up to 15 times.
# Another experiment was carried out with C277S-HC263 (SEQ ID NO: 288), CPAH-HC263 (SEQ ID NO: 294), CPAH-HC1010 (SEQ ID NO: 295) and untargeted C277S using the following protocol: • 1. Enzyme solutions comprising 1.0 mg/mL enzyme in 50 mM phosphate buffer (pH 6) were prepared. For solutions containing two enzymes, the concentration of each enzyme was approximately 0.5 mg/mL. • 2. Seven (7) hair strands were soaked in 0.2 mL of an enzyme solution for 10 min, rinsed with 50 mM phosphate buffer (pH 6), and then dried under N2. • 3. The dried hair strands were then soaked into 0.2 mL of 50 mM phosphate buffer solution (pH 8) comprising 100 mM triacetin and 250 mM H2O2 for 15 min, dried, then rinsed with DI water and then dried again. • 4.
# [4] = Impact of additives on perhydrolase activity, PAA indicator strip; assay type: biochemical; conditions: glycerin, ethanol, sorbitol, polyethylene glycol or propylene glycol additive
# Protocol: A peracetic acid indicator strip with detection range from 75 to 400 ppm was used to study the impact of additives on the perhydrolase activity of a perhydrolase. When the PAA concentration is at least 0.2 wt %, the dark color generated on the indicator strip will turn back to original white color over time.
# A first solution (“solution A”) was prepared using 50 mM phosphate buffer (pH 8) and 10 wt % of one of the following additives: glycerin, ethanol, sorbitol, polyethylene glycol, propylene glycol in, respectively.
# A second solution (“solution B”) was prepared by mixing 30% H2O2 and 50 mM phosphate buffer (pH 8) whereby the final concentration of H2O2 was 500 mM.
# A third solution (“solution C”) was prepared comprising of CPAH-HC1010 (SEQ ID NO: 295) (0.2 mg/mL), triacetin (200 mM), 50 mM phosphate buffer (pH 8), and solution A (5 wt % additive). Immediately, added solution B in a 1:1 volume ratio. After 1 to 5 min, a 30-μL sample of the resulting solution was removed and immediately placed on a PAA indicator strip.
# This process was repeated for each of the additives listed above.
molecule,measurement,setting,value
"CC(=O)OO [PAA, peracetic acid]",Ten. @ Max,"[1]; [PAA] 0.01 wt % then reductive solution (5 wt % potassium thioglycolate, pH 7.5), 20 min × 16, urea 10 wt %",1.2 gf/den
same,Ten. @ Max,"[1]; [PAA] 0.01 wt %, 20 min × 16, urea 10 wt %, pH 8",1.7 gf/den
same,Ten. @ Max,"[1]; [PAA] 0.02 wt % then reductive solution, 20 min × 16, urea 10 wt %",1.6 gf/den
same,Ten. @ Max,"[1]; [PAA] 0.02 wt %, 20 min × 16, urea 10 wt %, pH 8",1.7 gf/den
same,Ten. @ Max,"[1]; [PAA] 0.02 wt %, soaking 2 hr, pH 6",1.7 gf/den
same,Ten. @ Max,"[1]; [PAA] 0.02 wt %, soaking 2 hr, urea 0 wt %",1.6 gf/den
same,Ten. @ Max,"[1]; [PAA] 0.02 wt %, soaking 4 hr, urea 20 wt %",1.7 gf/den
same,Ten. @ Max,"[1]; [PAA] 0.05 wt % then reductive solution, 20 min × 16, urea 10 wt %",0.8 gf/den
same,Ten. @ Max,"[1]; [PAA] 0.05 wt %, 20 min × 16, urea 10 wt %, pH 8",1.5 gf/den
same,Ten. @ Max,"[1]; [PAA] 0.10 wt % then reductive solution, 20 min × 8, urea 10 wt %",0.9 gf/den
same,Ten. @ Max,"[1]; [PAA] 0.10 wt %, 20 min × 16, urea 10 wt %, pH 8",1.1 gf/den
same,Ten. @ Max,"[1]; [PAA] 0.20 wt % then reductive solution, 20 min × 8, urea 10 wt %",0.7 gf/den
same,Ten. @ Max,"[1]; [PAA] 0.20 wt %, 20 min × 16, urea 10 wt %, pH 8",0.7 gf/den
same,Ten. @ Max,"[1]; [PAA] 0.20 wt %, 30 min × 8, urea 20 wt %, pH 8",1.3 gf/den
same,Ten. @ Max,"[1]; [PAA] 0.20 wt %, 30 min × 16, urea 20 wt %, pH 8",0.6 gf/den
same,Ten. @ Max,"[1]; [PAA] 0.20 wt %, soaking 2 hr, pH 6",1.5 gf/den
same,Ten. @ Max,"[1]; [PAA] 0.20 wt %, soaking 2 hr, pH 8",1.6 gf/den
same,Ten. @ Max,"[1]; [PAA] 0.20 wt %, soaking 2 hr, urea 20 wt %",1.6 gf/den
same,Ten. @ Max,"[1]; [PAA] 0.20 wt %, soaking 4 hr, urea 20 wt %",1.5 gf/den
same,Ten. @ Max,"[1]; [PAA] 0.60 wt %, 30 min × 8, urea 20 wt %, pH 8",0.4 gf/den
same,Ten. @ Max (hair integrity),"[1]; [PAA] 0.60 wt %, 30 min × 16, urea 20 wt %, pH 8",NA: Not applicable as all hair strains in sample 6 lost their integrity before the 16th application and could not be analyzed.
same,Ten. @ Max,"[1]; [PAA] 0.60 wt %, soaking 2 hr, pH 6",1.3 gf/den
same,Ten. @ Max,"[1]; [PAA] 0.60 wt %, soaking 2 hr, pH 8",1.3 gf/den
same,Ten. @ Max,"[1]; [PAA] 0.60 wt %, soaking 2 hr, urea 0 wt %",1.3 gf/den
same,Ten. @ Max,"[1]; [PAA] 0.60 wt %, soaking 2 hr, urea 20 wt %",1.4 gf/den
same,Ten. @ Max,"[1]; [PAA] 0.60 wt %, soaking 4 hr, urea 0 wt %",1.2 gf/den
same,Ten. @ Max,"[1]; [PAA] 0.60 wt %, soaking 4 hr, urea 20 wt %",0.8 gf/den
same,Ten. @ Max,"[1]; [PAA] 2.00 wt %, soaking 2 hr, pH 6",0.9 gf/den
same,Ten. @ Max,"[1]; [PAA] 2.00 wt %, soaking 2 hr, pH 8",0.8 gf/den
same,effective PAA concentration,[1]; longer soaking time and 20% urea,about 0.6 wt %
same,effective PAA concentration to achieve target hair weakening level,"[1]; multiple treatments up to 16 times, 20 wt % urea",0.2 wt %
same,PAA concentration needed to achieve the targeted hair weakening level,"[1]; single application, 2 hours, pH 6 and pH 8",greater than 0.6 wt %
same,application at which the wool fibers were completely removed,"[2]; solution (a): 0.6 wt % PAA, 0.5 wt % SLES",19 application
same,application at which the wool fibers were completely removed,[2]; solution (b): 0.6 wt % PAA,23 application
same,application at which the wool fibers were completely removed,"[2]; solution (c): 0.2 wt % PAA, 0.5 wt % SLES",24 application
B1,Bleaching Start,[3]; 1.0 mg/mL enzyme pH 6,12th
same,Tenacity @ max,"[3]; 1.0 mg/mL enzyme pH 6, 100 mM triacetin, 250 mM H2O2, up to 13 repeats",1.2 gf/den
same,perhydrolase activity (PAA by indicator strip) in presence of additives,[4],≥ 2000 ppm
